In this experiment the target is T1, RORc ligand binding domain (Homo sapiens, UniProt P51449).
T1 sequence (P51449 269-508 limits assumed): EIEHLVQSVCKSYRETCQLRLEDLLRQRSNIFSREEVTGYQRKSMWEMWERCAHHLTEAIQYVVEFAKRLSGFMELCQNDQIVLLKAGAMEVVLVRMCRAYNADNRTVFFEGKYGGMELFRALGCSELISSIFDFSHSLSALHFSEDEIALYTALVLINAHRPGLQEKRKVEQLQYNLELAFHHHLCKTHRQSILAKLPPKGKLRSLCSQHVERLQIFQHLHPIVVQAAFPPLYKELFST
Nature of the experiment: In Vitro RORc Ligand Binding Assay. As to conditions: RORc IC50, radioligand 25-[3H]hydroxycholesterol 6 nM; 0.6 ug/mL RORc receptor; 3 h at 25° C.

Here are results for 13 molecules from patent publication US10487068B2, “Pyridazine derivatives as RORc modulators” (Genentech, Inc., priority 2015, dated 2019).

The molecule `CC1(C)[C@H]2CC[C@]1(c1nccc(-n3ccc(CO)n3)n1)c1nnc(-c3c(F)cccc3F)cc12` [Example 284, (1-(2-((5R,8R)-3-(2,6-difluorophenyl)-9,9-dimethyl-5,6,7,8-tetrahydro-5,8-methanocinnolin-8-yl)pyrimidin-4-yl)-1H-pyrazol-3-yl)methanol] gave an IC50 of 27.6 nM. In other words, the double-digit nanomolar range.
`CC1(C)[C@H]2CC[C@]1(c1cncc(-c3nc(C4(O)CC4)n[nH]3)n1)c1nnc(-c3c(F)cccc3F)cc12` [Example 285, 1-(5-(6-((5R,8S)-3-(2,6-difluorophenyl)-9,9-dimethyl-5,6,7,8-tetrahydro-5,8-methanocinnolin-8-yl)pyrazin-2-yl)-1H-1,2,4-triazol-3-yl)cyclopropanol] had an IC50 of 4.1 nM.
The same measure for `CC1(C)[C@H]2CC[C@]1(c1cncc(-c3nc([C@@H](O)CO)n[nH]3)n1)c1nnc(-c3c(F)cccc3F)cc12` [Example 286, (R)-1-(5-(6-((5R,8S)-3-(2,6-difluorophenyl)-9,9-dimethyl-5,6,7,8-tetrahydro-5,8-methanocinnolin-8-yl)pyrazin-2-yl)-1H-1,2,4-triazol-3-yl)ethane-1,2-diol]: 10.6 nM; for `CC1(C)[C@H]2CC[C@]1(c1nc(-n3ccc(CO)n3)ncc1F)c1nnc(-c3c(F)cccc3F)cc12` [Example 287]: 12.1 nM; for `CC1(C)[C@H]2CC[C@]1(c1nc(-c3nc(CO)no3)ncc1F)c1nnc(-c3c(F)cccc3F)cc12` [Example 288, (5-(4-((5R,8S)-3-(2,6-difluorophenyl)-9,9-dimethyl-5,6,7,8-tetrahydro-5,8-methanocinnolin-8-yl)-5-fluoropyrimidin-2-yl)-1,2,4-oxadiazol-32-(1-(4-((5R,8S)-3-(2,6-difluorophenyl)-9,9-dimethyl-5,6,7,8-tetrahydro-5,8-methanocinnolin-8-yl)pyrimidin-2-yl)-1H-pyrazol-3-yl)propan-2-ol-yl)methanol]: 20.3 nM.
Molecule `CC1(C)[C@H]2CC[C@]1(c1ccnc(-c3ccc(=O)[nH]c3)n1)c1nnc(-c3c(F)cccc3F)cc12` [Example 289] came in with an IC50 of 15.1 nM.
The same measure for `CC(C)(O)c1ccn(-c2nccc([C@@]34CC[C@@H](c5cc(-c6c(F)cccc6F)nnc53)C4(C)C)n2)n1` [Example 290]: 33.5 nM; for `CC1(C)[C@H]2CC[C@]1(c1ccnc(-n3ccc(C(N)=O)n3)n1)c1nnc(-c3c(F)cccc3F)cc12` [Example 291]: 34.3 nM.
As for `CC(C)(O)c1nc(-c2ncc(Cl)c([C@@]34CC[C@@H](c5cc(-c6c(F)cccc6F)nnc53)C4(C)C)n2)no1` [Example 292], the IC50 came out at 13.9 nM. Against the preceding molecule, the IC50 is about 2.5-fold lower.
The molecule `CC1(C)[C@H]2CC[C@]1(c1cncc(-c3nc(C[C@H](O)CO)n[nH]3)n1)c1nnc(-c3c(F)cccc3F)cc12` [Example 293, (S)-3-(5-(6-((5R,8S)-3-(2,6-difluorophenyl)-9,9-dimethyl-5,6,7,8-tetrahydro-5,8-methanocinnolin-8-yl)pyrazin-2-yl)-1H-1,2,4-triazol-3-yl)propane-1,2-diol] showed an IC50 of 28 nM.
The figure for `CC1(C)[C@H]2CC[C@]1(c1cncc(-c3nc(CS(C)(=O)=O)n[nH]3)n1)c1nnc(-c3c(F)cccc3F)cc12` [Example 294] is 23.3 nM; for `CC[C@H](O)c1n[nH]c(-c2cncc([C@@]34CC[C@@H](c5cc(-c6c(F)cccc6F)nnc53)C4(C)C)n2)n1` [Example 295, (S)-1-(5-(6-((5R,8S)-3-(2,6-difluorophenyl)-9,9-dimethyl-5,6,7,8-tetrahydro-5,8-methanocinnolin-8-yl)pyrazin-2-yl)-1H-1,2,4-triazol-3-yl)propan-1-ol] it is 15.2 nM; for `CC1(C)[C@H]2CC[C@]1(c1cncc(C3=NNC(=O)CN3)n1)c1nnc(-c3c(F)cccc3F)cc12` [Example 296, 3-(6-((5R,8S)-3-(2,6-difluorophenyl)-9,9-dimethyl-5,6,7,8-tetrahydro-5,8-methanocinnolin-8-yl)pyrazin-2-yl)-4,5-dihydro-1,2,4-triazin-6(1H)-one] it is 20.9 nM.

As a reminder, the IC50 is the concentration needed to halve the response being measured. The low end stands for higher potency, the high end for lower potency.
